Assays:
H1 ES cells = experiment: Media component test: survival and proliferation of dissociated ES cells; format: cell-based, human; settings: for requirement for short-term survival (24 hours) and proliferation (82 hours) of human ES cells: factor removed from TeSR, FIG. 6A; for initial survival of human ES cells: added to defined medium, FIG. 6F; for cell survival and proliferation: FIG. 4A-B
Experimental: (§1) (A) Dissociated H1 ES cells were plated into different media (Table 1) on […]-coated plates, and cell survival was measured 24 hours after plating. […] (B) The same ES cells from FIG. […] (C) Dissociated cells were plated in three different media, and initial survival was measured 22 hours after plating (blue column) Proliferation was measured 129 hours after plating (red column) The three media were TESR™, TESR without L-ascorbic acid (TESR-LAA) and a simplified medium containing DMEM/F 12, NaHCO3 LAA, insulin and FGF2 (*p<0.05, n=3). (D) H1 cells were maintained in defined media (DMEM/F12, NaHCO3, Insulin, FGF2 and LAA) for multiple passages with or without selenium. 150,000 starting cells were seeded in each passage on day 0, 4 and 7. (E) Human H1 cells were grown in DMEM/F12, NaHCO3, Insulin, FGF2, LAA and selenium with or without NODAL for four passages, and OCT4 expression was analyzed by FACS. Green peak: anti-OCT4 primary antibody with Alexa-488 secondary antibody; unshaded peak: mouse IgG control. (F) Transferrin was tested with cloning assay in defined media (DMEM/F12, NaHCO3, Insulin, FGF2, LAA, and Selenium); human foreskin iPS cells (Yu et al., Science 318:1917-1920 (2007)) were used in this particular experiment with ROCK inhibitor HA100 (10 μM) in hypoxic conditions (*p<0.05, n=3). […] (G) E8 medium (Table 1), TESR™ and conditioned medium (CM) were tested by cloning assay with HA100 (*p<0.05, n=3). Hypoxia conditions (5% O2 and 10% CO2, red column) and normoxic conditions (5% CO2, blue column) were used in the test (*p<0.05, n=3). […] (H) E8 medium and TESR™ were used to culture ES and iPS cells for long-term expansion, and the proliferation dynamics was recorded in the first seven passages. 200,000 H1 and human foreskin iPS cells (Yu et al., Science 324:797-801 (2009)) were plated in each passage in E8 and TESR™ media in hypoxic conditions.
H1 cells were maintained in specific media for 5 days (2 passages), and RNA was purified for qRT-PCR to detect NANOG expression relative to GAPDH. […] A variety of basic media were used to make growth media with additional components (insulin, FGF2, LAA, Selenium, and NaHCO3). Dissociated H1 cells were plated in different media on […]-coated plates. […] Green peak: OCT4 antibody with Alexa-488 conjugated secondary antibody; Grey peak: mouse IgG control. […] Cells were treated with HA100 (10 μM) and Y27632) (10 μM) for 24 hours, and with blebbistatin (10 μM) for 4 hours (*p<0.05, n=3).

H1 cells = experiment: Cloning assay; format: cell-based, human
Experimental: To determine how the various vitronectin variants affect cloning efficiency, the vitronectin polypeptide variants were tested in a cloning assay, essentially as described by Chen et al, Cell Stem Cell 7:240-248 (2010), incorporated herein by reference as if set forth in its entirety. Briefly, triplicates for each substrate were prepared in a 12-well plate. Prior to the addition of cells, 500 μL medium was added to each well. Cells were detached from their culture plate and dissociated with TrypLE for 5 minutes or until fully detached. TrypLE was neutralized with equal volumes of basic media, and the cells were counted, washed and then diluted to 5000 cells/mL. 100 μL of this cell suspension (500 cells) was added to each well. Plates were then incubated at 37° C., 5% O2 and 10% CO2 and the medium was changed every 1-2 day(s). After 5-6 days, colonies were stained with an APS kit (Vector Lab) following the manufacturer's instruction and counted.

human ES and iPS cells = experiment: Long-term expansion of ES and iPS cells in defined medium; format: cell-based; settings: for long-term culture stability of human ES and iPS cells: NODAL 100 ng/ml or TGFβ 2 ng/ml added to simple medium
Experimental: as §1, with “FIG. 5A were cultured in the same media with daily media change, and proliferation was measured 96 hours after plating.” for “FIG.”

[1] = test system: NANOG expression in H1 cells; experiment: NANOG expression by qRT-PCR relative to GAPDH; format: cell-based, human; settings: NODAL 100 ng/ml or TGFβ 2 ng/ml in defined media; FIG. 6B
Experimental: FIG. 6 illustrates media components supporting human pluripotent stem cells. […] When those factors were removed, H1 ES cells survived (24 hours, blue columns) and proliferated (82 hours, red columns) as well as in TeSR. […] H1 cells were maintained in specific media for 5 days (2 passages), and RNA was purified for qRT-PCR to detect NANOG expression relative to GAPDH. (C) DMEM/F12 basic media is among the best basic media in the screen that supports human ES cell survival and proliferation. A variety of basic media were used to make growth media with additional components (insulin, FGF2, LAA, Selenium, and NaHCO3). Dissociated H1 cells were plated in different media on MATRIGEL-coated plates. Cell survival was measured at 24 hours (blue column) and cell proliferation at 52 hours (red column) (D) Defined media (DMEM/F12, insulin, FGF2, LAA, and Selenium) with NODAL supports pluripotency of human iPS cells. Flow cytometry detected high expression of pluripotency marker OCT4 in two iPS cell lines. Green peak: OCT4 antibody with Alexa-488 conjugated secondary antibody; Grey peak: mouse IgG control. Similar results were also obtained from H1 and H9 ES cells maintained in the same media. (E) Normal karyotypes were maintained after long-term passage for those iPS cells shown above. […] High OCT4 expression was detected in H1 and iPS cells. […]

human foreskin iPS cells = experiment: Cloning assay in defined media with transferrin; format: cell-based; settings: defined media with HA100 (10 μM), hypoxic conditions; FIG. 4F
Experimental: FIG. 4 presents media components supporting human ES cell survival and proliferation. (A) Dissociated H1 ES cells were plated into different media (Table 1) on MATRIGEL-coated plates, and cell survival was measured 24 hours after plating. […] (B) The same ES cells from FIG. 5A were cultured in the same media with daily media change, and proliferation was measured 96 hours after plating. […] (C) Dissociated cells were plated in three different media, and initial survival was measured 22 hours after plating (blue column) Proliferation was measured 129 hours after plating (red column) The three media were […] without L-ascorbic acid (TESR-LAA) and a simplified medium containing DMEM/F 12, NaHCO3 LAA, insulin and FGF2 (*p<0.05, n=3). (D) H1 cells were maintained in defined media (DMEM/F12, NaHCO3, Insulin, FGF2 and LAA) for multiple passages with or without selenium. 150,000 starting cells were seeded in each passage on day 0, 4 and 7. (E) Human H1 cells were grown in DMEM/F12, NaHCO3, Insulin, FGF2, LAA and selenium with or without NODAL for four passages, and OCT4 expression was analyzed by FACS. Green peak: anti-OCT4 primary antibody with Alexa-488 secondary antibody; unshaded peak: mouse IgG control. […] (H) E8 medium and […] were used to culture ES and iPS cells for long-term expansion, and the proliferation dynamics was recorded in the first seven passages. […]

[2] = added to defined medium, FIG. 6G
[3] = TESR components in absence of BSA and BME

Question: Which “requirement for short-term survival (24 hours) and proliferation (82 hours) of human ES cells” value (shortened to “requirement for short-term survival”) (H1 ES cells) does the source give for `NCCCC(=O)O` [GABA] here?
Answer: not required for short-term survival and proliferation

Question: For `O=S(=O)(c1cccc2cnccc12)N1CCNCC1` [HA100, reference compound], which “cell survival after dissociation” value (H1 ES cells; 10 μM, TeSR, p<0.05, n=3) is on record?
Answer: improved cell survival after dissociation

Question: And the “initial survival of human ES cells” value (H1 ES cells)?
Answer: improved initial survival

Question: What about the cloning efficiency (H1 cells; E8 media, 10 μM for 24 hours, p<0.05, n=3) of the same molecule?
Answer: improved cloning efficiency as efficiently as Y27632 and blebbistatin

Question: And the cloning efficiency (H1 cells; [2])?
Answer: supported a high cloning efficiency

Question: For `O=C1O[C@H]([C@@H](O)CO)C(O)=C1O` [L-ascorbic acid], which ES cell proliferation (H1 ES cells; TESR components in absence of BSA and BME, FIG. 4C) is on record?
Answer: promoted ES cell proliferation

Question: For `[Cl-].[Li+]` [LiCl], which “requirement for short-term survival” value (H1 ES cells) is on record?
Answer: not required for short-term survival and proliferation

Question: `O=C(O)C1CCCCN1` (stereo not drawn) [Pipecolic acid] was tested. Which “requirement for short-term survival” value (H1 ES cells) did it give?
Answer: not required for short-term survival and proliferation

Question: How did the “initial survival of human ES cells” value (H1 ES cells) turn out when `C[C@@H](N)[C@H]1CC[C@H](C(=O)Nc2ccncc2)CC1` [Y27632, reference compound] was run?
Answer: improved initial survival

Question: What about the cloning efficiency (H1 cells; [2]) of the same molecule?
Answer: supported a high cloning efficiency

Question: With `Cc1ccc2c(c1)C(=O)C1(O)CCN(c3ccccc3)C1=N2` (stereo not drawn) [blebbistatin, reference compound] as the molecule, how does the “initial survival of human ES cells” value (H1 ES cells) read?
Answer: improved initial survival

Question: What about the cloning efficiency (H1 cells; [2]) of the same molecule?
Answer: supported a high cloning efficiency

Question: Which long-term sustained growth (human ES and iPS cells; defined media, multiple passages, FIG. 4D) does the source give for `[Se]` [selenium] here?
Answer: necessary for long-term sustained growth

Question: For FGF2: growth factor medium component, which “cell survival and proliferation” value (H1 ES cells; [3]) is on record?
Answer: remained important for cell survival and proliferation

Question: Which “cell survival and proliferation” value (H1 ES cells; [3]) does the source give for Insulin: medium component here?
Answer: remained important for cell survival and proliferation

Question: How did the “requirement for short-term survival” value (H1 ES cells) turn out when TGFβ was run?
Answer: not required for short-term survival and proliferation

Question: What about the NANOG expression levels [1] of the same molecule?
Answer: increased NANOG expression levels

Question: And the “long-term culture stability of human ES and iPS cells” value (human ES and iPS cells)?
Answer: consistent long-term culture stability

Question: For “transferrin: protein medium component of E8”, which “cloning efficiency on addition of transferrin” value (human foreskin iPS cells) is on record?
Answer: further increased

B1: NODAL: growth factor medium component, 100 ng/mL, interchangeable with TGFβ in E8 media (protein, UniProt Q96S42 238-347, looked up)
Nodal homolog: HHLPDRSQLCRKVKFQVDFNLIGWGSWIIYPKQYNAYRCEGECPNPVGEEFHPTNHAYIQSLLKRYQPHRVPSTCCAPVKTKPLSMLYVDNGRVLLDHHKDMIVEECGCL
Question: For B1, which NANOG expression levels [1] is on record?
Answer: increased NANOG expression levels

Question: And the “long-term culture stability of human ES and iPS cells” value (human ES and iPS cells)?
Answer: consistent long-term culture stability
